# Source: US11014934B2, “Antiseptic drug” (AO “TATKHIMFARMPREPARATY”, priority 2017, dated 2021)
# Columns and labels:
# [1] = test system: Escherichia coli CDC F-50; assay: Disinfectant activity in contaminated metal surface test; type: cell-based; details: for time after application to effective inhibition of bacterial growth: Escherichia coli CDC F-50, 0.1% solutions
# Description: (§1) The preparation of the bacterial suspension was carried out similarly to the procedure for determining the disinfecting activity of compound I in suspension (see example 7). To simulate protein contamination of the metal surface, a BSA solution was added to the bacterial suspension to a final concentration of 0.4%. The surface of the metal table was drawn into squares, the number of which depended on the number of strains studied. The test surface should be clean, intact, sterile. To do this, the table was cleaned with alcohol, and then with sterile water. A microbial suspension in a volume of 0.125 ml was applied to a surface area of 5×5 cm and distributed with a sterile spatula over the entire square area. After the microbial suspension was dried, a 0.5 ml solution of compound I (miramistin and benzalkonium chloride being a control) was uniformly applied to the surface at a working concentration of 0.1 and 0.2% and distributed over the square surface with a sterile spatula, and then kept for 1, 5, and 15 minutes.
# (§2) After the end of exposure, the contaminated surface was thoroughly wiped with a sterile gauze cloth (size 5×5 cm) soaked in 1 ml of a neutralizer solution and the cloth was immersed in 10 ml of sterile physiological saline in a flask, which was shaken for 10 minutes.
# (§3) Plating was carried out as in example 7, in addition to the controls were carried out: • control of the sterility of the surface (before applying the microbial suspension, a metal table was washed off with a sterile swab, followed by plating on a nutrient medium); • control of the vitality of the microorganism (after applying microbial suspension on the metal table, it was washed off with a sterile swab with subsequent plating on the nutrient medium).
# (§4) The contamination density of 1 cm^2 of the surface and the percentage of disinfection were calculated, taking the number of colonies removed from control surfaces as 100%. The criterion for the effectiveness of surface disinfection is not less than 99.99% of the death of test microorganisms, the disinfection time is not more than 120 minutes.
# [2] = test system: Staphylococcus aureus ATCC 209p; assay: as above; type: cell-based; details: for Inhibition rate (Mean ± SD) of Staphylococcus aureus ATCC 209p growth: 0.1% solution; for Inhibition rate (M ± SD) Staphylococcus aureus ATCC 209p: 0.2% solution; for time after application to effective inhibition of bacterial growth (99.99%): 0.1% solutions
# Description: as §1, §2, §3, §4
# E. coli CDC F-50 = assay: Antiseptic activity on rat skin; type: in vivo; details: E. coli CDC F-50 on rat skin; antiseptic concentration 0.2%; exposure time 5 min; n = 6
# Description: The study of the antiseptic activity of compound I in rats […] was carried out in accordance with [R 4.2.2643-10 Metody laboratornykh issledovaniy i ispytaniy mediko-profilakticheskikh dezinfektsionnykh sredstv dlya otsenki ikh effektivnosti i bezopasnosti: Rukovodstvo.—M: Federal'nyy tsentr gigiyeny i epidemiologii Rospotrebnadzora, 2010.—S. 615. R 4.2.2643-10 Laboratory methods for the study and testing of medical prophylactic disinfectants to assess their effectiveness and safety: Guide.—M.:: Federal Center for Hygiene and Epidemiology of Rospotrebnadzor, 2010.—P. 615]. Experiments were carried out on male Wistar rats with a body weight of 180-250 g.
# A culture of E. coli CDC F-50, grown on dense nutrient medium for (18-20) hours, was washed with sterile isotonic chloride solution, centrifuged at 5000 rpm for 5 minutes, the supernatant was drained and cells were resuspended with sterile isotonic sodium chloride solution.
# The bacterial suspension of microorganisms was brought to a turbidity of […] according to McFarland, which corresponds to a concentration of 1.5×10^7 cells/ml.
# Animals were formed in 5 groups of 6 animals each. All manipulations with animals were performed under isoflurane anesthesia (4%—induction of anesthesia (2 min, 1 l/min), 2%—basis narcosis). A portion of 5×5 cm was shaved with a hair clipper on the dorsal part of the body of the animal.
# A 0.25 ml microbial suspension containing 1×10^7 CFU of E. coli CDC F-50 was applied to the shaved portion of the rat back with a dispenser and distributed with a sterile disposable spatula over the entire square area. It was left for 2-3 minutes until dry.
# Then, a gauze cloth (5×5 cm) was applied to the skin of rats for 5 minutes. In the experimental group, the tissue was pre-wetted with 1 ml of 0.2% solution of compound I, and in the positive control groups, the tissue was dipped in 1 ml of 0.2% miramistin, benzalkonium chloride and chlorhexidine. In the negative control group, the cloth was immersed in 1 ml of sterile saline. […]
# After the time required for the cultivation of microorganisms of this species, the results were counted according to the number of colonies grown on the Petri dish. […] After counting the number of colonies grown on Petri dishes, the density of contamination per 1 cm^2 of the surface and the percentage of disinfection were calculated, taking the number of colonies removed from control surfaces and not exposed to antiseptics action as 100%. The percentage of growth inhibition of E. coli CDC F-50 was calculated by the formula: […]
# [3] = 0.1% solution, exposure 1 min, +BSA
# [4] = 0.1% solution, exposure 1 min, −BSA
# [5] = 0.1% solution, exposure 5 min, +BSA
# [6] = 0.1% solution, exposure 5 min, −BSA
# [7] = 0.1% solution, exposure 15 min, +BSA
# [8] = 0.1% solution, exposure 15 min, −BSA
# [9] = 0.2% solution, exposure 1 min, +BSA
# [10] = 0.2% solution, exposure 1 min, −BSA
# [11] = 0.2% solution, exposure 5 min, +BSA
# [12] = 0.2% solution, exposure 5 min, −BSA
# [13] = 0.2% solution, exposure 15 min, +BSA
# [14] = 0.2% solution, exposure 15 min, −BSA
# [15] = Staphylococcus aureus ATCC 209p
Compound,"Inhibition rate (M ± SD) of Escherichia coli CDC F-50 growth [1, 3] [%]","Inhibition rate (M ± SD) of Escherichia coli CDC F-50 growth [1, 4] [%]","Inhibition rate (M ± SD) of Escherichia coli CDC F-50 growth [1, 5] [%]","Inhibition rate (M ± SD) of Escherichia coli CDC F-50 growth [1, 6] [%]","Inhibition rate (M ± SD) of Escherichia coli CDC F-50 growth [1, 7] [%]","Inhibition rate (M ± SD) of Escherichia coli CDC F-50 growth [1, 8] [%]","Inhibition rate (M ± SD) of Escherichia coli CDC F-50 growth [1, 9] [%]","Inhibition rate (M ± SD) of Escherichia coli CDC F-50 growth [1, 10] [%]","Inhibition rate (M ± SD) of Escherichia coli CDC F-50 growth [1, 11] [%]","Inhibition rate (M ± SD) of Escherichia coli CDC F-50 growth [1, 12] [%]","Inhibition rate (M ± SD) of Escherichia coli CDC F-50 growth [1, 13] [%]","Inhibition rate (M ± SD) of Escherichia coli CDC F-50 growth [1, 14] [%]",time after application to effective inhibition of bacterial growth [1] [min],"Inhibition rate (Mean ± SD) of Staphylococcus aureus ATCC 209p growth ([2]; exposure 1 min, +BSA) [%]","Inhibition rate (Mean ± SD) of Staphylococcus aureus ATCC 209p growth ([2]; exposure 1 min, −BSA) [%]","Inhibition rate (Mean ± SD) of Staphylococcus aureus ATCC 209p growth ([2]; exposure 5 min, +BSA) [%]","Inhibition rate (Mean ± SD) of Staphylococcus aureus ATCC 209p growth ([2]; exposure 5 min, −BSA) [%]","Inhibition rate (Mean ± SD) of Staphylococcus aureus ATCC 209p growth ([2]; exposure 15 min, +BSA) [%]","Inhibition rate (Mean ± SD) of Staphylococcus aureus ATCC 209p growth ([2]; exposure 15 min, −BSA) [%]","Inhibition rate (M ± SD) Staphylococcus aureus ATCC 209p ([2]; exposure 1 min, +BSA) [%]",other results
"CCCCCCCCCCCCCC(=O)NCCC[N+](C)(C)Cc1ccccc1.O.[Cl-] [Miramistin, benzyldimethyl [3-(myristoylamino)propyl]-ammonium chloride monohydrate]",99.75 ± 0.005,99.75 ± 0.00,99.97 ± 0.005,99.86 ± 0.005,99.99 ± 0.005,99.99 ± 0.005,99.83 ± 0.005,99.98 ± 0.005,99.99 ± 0.005,99.99 ± 0.005,99.99 ± 0.005,100,15,99.98 ± 0.00,99.98 ± 0.005,99.99,99.99,99.99,99.99,99.98 ± 0.00,"Inhibition rate (M ± SD) Staphylococcus aureus ATCC 209p ([2]; exposure 1 min, −BSA): 99.98 ± 0.005%; Inhibition rate (M ± SD) Staphylococcus aureus ATCC 209p ([2]; exposure 5 min, +BSA): 99.99%; Inhibition rate (M ± SD) Staphylococcus aureus ATCC 209p ([2]; exposure 5 min, −BSA): 99.99%; Inhibition rate (M ± SD) Staphylococcus aureus ATCC 209p ([2]; exposure 15 min, +BSA): 99.99%; Inhibition rate (M ± SD) Staphylococcus aureus ATCC 209p ([2]; exposure 15 min, −BSA): 99.99%; time after application to effective inhibition of bacterial growth (99.99%) [2, 15]: 5 min; Growth inhibition rate (M ± SD) (E. coli CDC F-50): 97.2 ± 1.8%"
alkyldimethyl(phenylmethyl) ammonium chloride [Benzalconium chloride],99.97 ± 0.005,99.96 ± 0.005,99.97 ± 0.005,99.98 ± 0.005,99.99 ± 0.005,100 ± 0.00,99.97 ± 0.00,99.99 ± 0.005,99.99 ± 0.005,100,100 ± 0.00,100,15,99.99 ± 0.005,99.99,99.99,99.99,99.99,99.99 ± 0.005,99.99,"time to effective inhibition of bacterial growth ([1]; Escherichia coli CDC F-50, concentration 0.2%, test without protein load): 1 min; Inhibition rate (M ± SD) Staphylococcus aureus ATCC 209p ([2]; exposure 1 min, −BSA): 99.99%; Inhibition rate (M ± SD) Staphylococcus aureus ATCC 209p ([2]; exposure 5 min, +BSA): 99.99%; Inhibition rate (M ± SD) Staphylococcus aureus ATCC 209p ([2]; exposure 5 min, −BSA): 99.99%; Inhibition rate (M ± SD) Staphylococcus aureus ATCC 209p ([2]; exposure 15 min, +BSA): 99.99 ± 0.005%; Inhibition rate (M ± SD) Staphylococcus aureus ATCC 209p ([2]; exposure 15 min, −BSA): 100%; time after application to effective inhibition of bacterial growth (99.99%) [2, 15]: 5 min; Growth inhibition rate (M ± SD) (E. coli CDC F-50): 96.8 ± 2.0%"
"CCCCCCCCCCCC[N+](C)(C)Cc1cnc(C[N+](C)(C)CCCCCCCCCCCC)c2c1COC(CC)O2 (centres unmarked) [Compound I, 5,8-(Bis(methylene (N, N-dimethyl-N-dodecylammonium))-2-ethyl-4H-[1,3]dioxino [4,5-c]pyridiniumdichloride]",99.92 ± 0.005,99.92 ± 0.005,99.96 ± 0.005,99.97 ± 0.005,99.99 ± 0.005,99.99 ± 0.00,99.94 ± 0.00,99.98 ± 0.005,99.99 ± 0.005,99.99 ± 0.005,100 ± 0.005,100,15,99.98 ± 0.00,99.99,99.99,99.99,99.99,99.99,99.99,"Inhibition rate (M ± SD) Staphylococcus aureus ATCC 209p ([2]; exposure 1 min, −BSA): 99.99%; Inhibition rate (M ± SD) Staphylococcus aureus ATCC 209p ([2]; exposure 5 min, +BSA): 99.99%; Inhibition rate (M ± SD) Staphylococcus aureus ATCC 209p ([2]; exposure 5 min, −BSA): 99.99%; Inhibition rate (M ± SD) Staphylococcus aureus ATCC 209p ([2]; exposure 15 min, +BSA): 99.99%; Inhibition rate (M ± SD) Staphylococcus aureus ATCC 209p ([2]; exposure 15 min, −BSA): 99.99%; time after application to effective inhibition of bacterial growth (99.99%) [2, 15]: 5 min; time to effective inhibition of bacterial growth ([2]; Staphylococcus aureus ATCC 209p, concentration 0.2%): 1 min; Growth inhibition rate (M ± SD) (E. coli CDC F-50): 97.5 ± 1.7%"
